The values that follow come from ChEMBL document CHEMBL5465560, “Selectivity Literature for EUbOPEN Chemogenomic Library” (2024).

By EC50 is commonly meant the concentration that produces a half-maximal response. A lower EC50 goes with a more potent agent.

Assay [1] concerns the target T1, Interleukin-1 receptor-associated kinase 4 (Homo sapiens) (UniProt Q9NWZ3).
T1 sequence (whole entry): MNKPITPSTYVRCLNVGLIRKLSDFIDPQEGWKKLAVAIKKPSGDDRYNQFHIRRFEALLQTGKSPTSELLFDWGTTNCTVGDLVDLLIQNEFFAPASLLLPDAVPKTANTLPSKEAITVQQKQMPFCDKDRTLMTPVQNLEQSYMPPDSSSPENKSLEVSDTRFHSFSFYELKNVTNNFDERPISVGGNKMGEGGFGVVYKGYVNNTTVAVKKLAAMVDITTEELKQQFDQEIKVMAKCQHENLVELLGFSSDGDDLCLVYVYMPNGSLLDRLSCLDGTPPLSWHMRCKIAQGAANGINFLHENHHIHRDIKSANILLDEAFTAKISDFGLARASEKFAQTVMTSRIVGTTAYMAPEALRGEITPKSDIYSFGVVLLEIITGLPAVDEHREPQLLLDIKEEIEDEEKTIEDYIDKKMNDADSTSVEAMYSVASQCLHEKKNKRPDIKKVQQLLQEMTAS
The assay can be described thus: Selectivity interaction (ActivX KiNativ screen (ex vivo kinase selectivity in human PBMCs)) EUB0001619a IRAK4. The assay is classed as cell-based. The conditions noted are these: PBMC, at 1 µM.

For assay [2], the target named is T2, Serine/threonine-protein kinase RIO3 (Homo sapiens) (UniProt O14730).
T2 sequence (whole entry): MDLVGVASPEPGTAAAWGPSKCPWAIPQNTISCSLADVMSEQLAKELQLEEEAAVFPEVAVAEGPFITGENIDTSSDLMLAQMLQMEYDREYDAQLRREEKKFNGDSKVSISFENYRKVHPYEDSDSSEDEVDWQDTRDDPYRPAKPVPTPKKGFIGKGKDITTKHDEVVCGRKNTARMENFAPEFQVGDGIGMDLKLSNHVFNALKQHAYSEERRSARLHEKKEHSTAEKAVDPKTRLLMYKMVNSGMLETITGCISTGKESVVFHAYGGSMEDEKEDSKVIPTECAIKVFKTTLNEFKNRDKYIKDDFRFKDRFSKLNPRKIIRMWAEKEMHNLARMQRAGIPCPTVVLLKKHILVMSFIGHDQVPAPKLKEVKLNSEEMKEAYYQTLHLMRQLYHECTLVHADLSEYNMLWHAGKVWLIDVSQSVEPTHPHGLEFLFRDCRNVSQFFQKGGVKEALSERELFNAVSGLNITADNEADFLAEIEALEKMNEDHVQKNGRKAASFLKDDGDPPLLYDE
The conditions noted are these: at 10 µM.

For assay [3], the target named is T3, Mitogen-activated protein kinase kinase kinase kinase 2 (Homo sapiens) (UniProt Q12851).
T3 sequence (whole entry): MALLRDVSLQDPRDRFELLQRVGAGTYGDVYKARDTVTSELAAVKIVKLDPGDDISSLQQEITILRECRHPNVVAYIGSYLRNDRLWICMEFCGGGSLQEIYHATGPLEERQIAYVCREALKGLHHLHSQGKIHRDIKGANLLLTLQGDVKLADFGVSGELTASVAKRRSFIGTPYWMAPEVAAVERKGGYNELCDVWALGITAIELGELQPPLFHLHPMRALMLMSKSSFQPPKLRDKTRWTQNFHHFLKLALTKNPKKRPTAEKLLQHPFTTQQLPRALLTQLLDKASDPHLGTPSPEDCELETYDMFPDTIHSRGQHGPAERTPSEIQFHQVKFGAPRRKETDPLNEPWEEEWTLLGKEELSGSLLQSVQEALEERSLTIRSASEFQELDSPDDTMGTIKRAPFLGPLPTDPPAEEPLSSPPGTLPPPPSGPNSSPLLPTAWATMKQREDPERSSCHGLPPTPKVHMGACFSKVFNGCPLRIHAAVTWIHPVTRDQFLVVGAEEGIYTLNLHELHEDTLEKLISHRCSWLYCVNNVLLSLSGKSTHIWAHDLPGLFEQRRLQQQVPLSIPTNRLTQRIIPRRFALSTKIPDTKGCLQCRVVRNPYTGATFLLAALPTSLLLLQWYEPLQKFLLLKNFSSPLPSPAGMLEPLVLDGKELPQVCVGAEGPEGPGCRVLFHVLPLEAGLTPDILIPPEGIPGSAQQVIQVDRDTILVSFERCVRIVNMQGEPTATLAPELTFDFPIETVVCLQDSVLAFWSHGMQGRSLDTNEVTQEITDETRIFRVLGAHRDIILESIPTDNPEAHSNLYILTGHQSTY
The assay can be described thus: Selectivity interaction (KinomeScan (DiscoverX)) EUB0000666a MAP4K2. To be noted: at 10 µM.

In assay [4] the target is T4, Histone-arginine methyltransferase CARM1 (Homo sapiens) (UniProt Q86X55).
T4 sequence (whole entry): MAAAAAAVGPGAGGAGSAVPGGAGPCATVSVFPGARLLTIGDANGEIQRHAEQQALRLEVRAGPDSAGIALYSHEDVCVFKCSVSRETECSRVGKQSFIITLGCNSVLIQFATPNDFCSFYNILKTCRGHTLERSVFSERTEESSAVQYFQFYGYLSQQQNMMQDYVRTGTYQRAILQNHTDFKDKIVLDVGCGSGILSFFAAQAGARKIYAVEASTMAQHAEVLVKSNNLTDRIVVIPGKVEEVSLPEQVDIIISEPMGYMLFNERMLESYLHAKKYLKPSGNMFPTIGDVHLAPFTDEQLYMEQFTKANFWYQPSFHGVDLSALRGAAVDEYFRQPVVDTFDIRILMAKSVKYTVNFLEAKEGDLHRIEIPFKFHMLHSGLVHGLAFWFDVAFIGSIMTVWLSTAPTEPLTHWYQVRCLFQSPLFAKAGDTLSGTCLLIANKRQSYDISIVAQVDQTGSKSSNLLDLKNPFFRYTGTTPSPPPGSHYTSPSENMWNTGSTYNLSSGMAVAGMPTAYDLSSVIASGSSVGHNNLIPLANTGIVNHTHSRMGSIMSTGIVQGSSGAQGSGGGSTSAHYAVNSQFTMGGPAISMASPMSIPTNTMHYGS
The conditions noted are these: KMS-26, at 3 µM.

For assay [5], the target named is Tyrosine-protein kinase JAK1 (Homo sapiens, UniProt P23458). The assay can be described thus: Selectivity interaction (NanoBRET assay (HEK293T cells)) EUB0001559a JAK1. The assay is classed as cell-based, HEK-293T. (BRET reads energy transfer from a luciferase to a nearby fluorophore.)
Assay [6] addresses Ribosomal protein S6 kinase alpha-1 (Homo sapiens, UniProt Q15418). The assay can be described thus: Selectivity interaction (Ambit KINOMEscan and KiNATiv profiling in Jurkat cells) EUB0000090b RPS6KA1. The assay is classed as cell-based. The conditions noted are these: at 1 µM.

Sequence of Ribosomal protein S6 kinase alpha-1 (Q15418 whole entry): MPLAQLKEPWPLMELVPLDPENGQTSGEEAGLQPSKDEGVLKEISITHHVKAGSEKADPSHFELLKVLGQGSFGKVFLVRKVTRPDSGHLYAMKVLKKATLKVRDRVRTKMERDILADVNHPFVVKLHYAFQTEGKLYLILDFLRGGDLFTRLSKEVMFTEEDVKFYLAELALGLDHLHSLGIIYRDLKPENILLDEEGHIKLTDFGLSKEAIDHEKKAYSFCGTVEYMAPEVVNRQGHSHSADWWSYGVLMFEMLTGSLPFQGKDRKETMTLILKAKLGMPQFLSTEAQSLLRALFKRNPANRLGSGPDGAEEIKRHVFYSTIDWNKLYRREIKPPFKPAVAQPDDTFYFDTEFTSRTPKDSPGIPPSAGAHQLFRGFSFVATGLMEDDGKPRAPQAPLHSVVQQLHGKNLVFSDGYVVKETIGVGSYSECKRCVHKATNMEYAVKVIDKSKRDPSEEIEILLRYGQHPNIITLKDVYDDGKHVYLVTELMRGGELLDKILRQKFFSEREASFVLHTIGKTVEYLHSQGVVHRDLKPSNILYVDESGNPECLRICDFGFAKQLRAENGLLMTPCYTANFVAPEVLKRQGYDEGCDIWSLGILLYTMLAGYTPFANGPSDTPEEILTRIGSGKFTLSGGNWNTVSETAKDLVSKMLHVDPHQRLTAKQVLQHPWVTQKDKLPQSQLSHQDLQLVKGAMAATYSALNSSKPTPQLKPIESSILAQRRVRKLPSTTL
Sequence of Tyrosine-protein kinase JAK1 (P23458 whole entry): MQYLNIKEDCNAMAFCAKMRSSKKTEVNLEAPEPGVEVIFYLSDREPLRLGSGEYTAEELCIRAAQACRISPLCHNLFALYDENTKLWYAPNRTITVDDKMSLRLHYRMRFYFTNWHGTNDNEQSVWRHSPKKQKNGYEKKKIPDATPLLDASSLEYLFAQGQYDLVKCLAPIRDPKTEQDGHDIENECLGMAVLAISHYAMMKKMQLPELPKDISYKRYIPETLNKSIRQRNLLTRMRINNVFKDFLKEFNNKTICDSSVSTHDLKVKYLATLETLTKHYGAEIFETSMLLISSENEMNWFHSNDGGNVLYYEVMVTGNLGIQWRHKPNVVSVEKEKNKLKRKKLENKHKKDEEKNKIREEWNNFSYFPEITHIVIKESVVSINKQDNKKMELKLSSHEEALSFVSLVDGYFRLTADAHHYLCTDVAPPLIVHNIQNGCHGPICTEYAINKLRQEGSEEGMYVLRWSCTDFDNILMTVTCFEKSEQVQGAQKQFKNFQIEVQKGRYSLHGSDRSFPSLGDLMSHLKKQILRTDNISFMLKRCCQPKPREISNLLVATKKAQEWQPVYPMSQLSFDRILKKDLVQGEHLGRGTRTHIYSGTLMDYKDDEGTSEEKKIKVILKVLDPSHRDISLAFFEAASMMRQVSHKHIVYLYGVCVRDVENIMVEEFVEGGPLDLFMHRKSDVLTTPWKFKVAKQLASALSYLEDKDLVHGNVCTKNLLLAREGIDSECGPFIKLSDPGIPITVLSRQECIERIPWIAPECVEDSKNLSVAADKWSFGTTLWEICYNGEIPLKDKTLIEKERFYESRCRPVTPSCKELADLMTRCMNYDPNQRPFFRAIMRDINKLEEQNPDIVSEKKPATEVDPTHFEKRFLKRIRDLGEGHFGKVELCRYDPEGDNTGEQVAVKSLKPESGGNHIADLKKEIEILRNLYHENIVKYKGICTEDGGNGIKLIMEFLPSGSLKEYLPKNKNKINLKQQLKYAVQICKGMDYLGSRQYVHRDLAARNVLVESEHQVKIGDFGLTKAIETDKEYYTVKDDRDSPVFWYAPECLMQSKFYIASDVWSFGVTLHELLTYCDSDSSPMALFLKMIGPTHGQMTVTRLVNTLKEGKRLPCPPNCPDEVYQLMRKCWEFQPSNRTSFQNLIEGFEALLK

On to `N#Cc1cccc(-c2c[nH]c3ncnc(N4CCOCC4)c23)c1`, for which, in assay [1], the % of inhibition came to 11%. As for `CCN(CC)CCCCNc1ncc2cc(-c3cc(OC)cc(OC)c3)c(NC(=O)NC(C)(C)C)nc2n1`, in assay [2], the % of control was 100%.

For the molecule `O=C(NOC[C@H](O)CO)c1ccc(F)c(F)c1Nc1ccc(I)cc1F`, in assay [3], the % of control amounted to 100%. Regarding `CNCCN1CCC(c2cc(CN(C)C(=O)c3cccc(Oc4ccccc4)c3)ccn2)CC1`, the % of growth rate in assay [4] was -19.5%. Regarding `CN(C(=O)c1cnn2cccnc12)c1cc2c(cc1N1CCOCC1)C(=O)N(C[C@@H](F)C(C)(C)O)C2`, the EC50 in assay [5] is more than 50 µM. In turn, `CN(C)C/C=C/C(=O)Nc1ccc(C(=O)N2CCCC(Nc3ncc(Cl)c(-c4c[nH]c5ccccc45)n3)C2)cc1` (stereo unspecified) displayed a % of control in assay [6] of 89%.
